Assays:
[1] = tested on: ducksalad (Heteranthera limosa); test: Test B flooded paddy test, visual rating 0-100; settings: Flood, 250 g ai/ha, applied to paddy water, rated after 13 to 15 days
[2] = tested on: barnyardgrass (Echinochloa crus-galli); test: Test A preemergence, visual injury rating 0-100 (0 no effect, 100 complete control); format: in vivo; settings: for Barnyardgrass plant response rating (0 to 100 scale): 125 g ai/ha; for Barnyardgrass plant response rating: 500 g ai/ha, 0 to 100 scale
[3] = tested on: barnyardgrass (Echinochloa crus-galli); test: Test B flooded paddy test, visual rating 0-100; settings: Flood, 250 g ai/ha, applied to paddy water, rated after 13 to 15 days
[4] = tested on: pigweed (Amaranthus retroflexus); test: Test A preemergence, visual injury rating 0-100; format: in vivo; settings: for Pigweed plant response rating: 0 to 100 scale
[5] = tested on: ragweed (common ragweed, Ambrosia elatior); test: Test A preemergence, visual injury rating 0-100; format: in vivo; settings: for Ragweed plant response rating: 0 to 100 scale
[6] = tested on: foxtail, green (green foxtail, Setaria viridis); test: Test A preemergence, visual injury rating 0-100; format: in vivo; settings: for Foxtail, Green plant response rating: 0 to 100 scale
kochia (Kochia scoparia) [7] = test: Test A preemergence, visual injury rating 0-100; format: in vivo; settings: for Kochia plant response rating: 0 to 100 scale
[8] = tested on: ryegrass, Italian (Italian ryegrass, Lolium multiflorum); test: Test A preemergence, visual injury rating 0-100; format: in vivo; settings: for Ryegrass, Italian plant response rating: 0 to 100 scale
rice (Oryza sativa) = test: Test B flooded paddy test, visual rating 0-100 (0 no effect, 100 complete control); settings: Flood, 250 g ai/ha, applied to paddy water, rated after 13 to 15 days
[9] = tested on: pigweed (Amaranthus retroflexus); test: Test A postemergence, visual injury rating 0-100; format: in vivo; settings: 0 to 100 scale
[10] = tested on: ragweed (common ragweed, Ambrosia elatior); test: Test A postemergence, visual injury rating 0-100; format: in vivo; settings: 0 to 100 scale
[11] = tested on: blackgrass (Alopecurus myosuroides); test: Test A postemergence, visual injury rating 0-100; format: in vivo; settings: 0 to 100 scale
corn (Zea mays) = test: Test A postemergence, visual injury rating 0-100; format: in vivo; settings: 0 to 100 scale
[12] = tested on: barnyardgrass (Echinochloa crus-galli); test: Test A postemergence, visual injury rating 0-100; format: in vivo; settings: 0 to 100 scale
[13] = tested on: wheat (Triticum aestivum); test: Test A postemergence, visual injury rating 0-100; format: in vivo; settings: 0 to 100 scale
[14] = tested on: foxtail, green (green foxtail, Setaria viridis); test: Test A postemergence, visual injury rating 0-100; format: in vivo; settings: 0 to 100 scale
kochia (Kochia scoparia) [15] = test: Test A postemergence, visual injury rating 0-100; format: in vivo; settings: 0 to 100 scale
[16] = tested on: ryegrass, Italian (Italian ryegrass, Lolium multiflorum); test: Test A postemergence, visual injury rating 0-100; format: in vivo; settings: 0 to 100 scale

Compound	Ducksalad plant response rating (0 to 100 scale) [1]	Barnyardgrass plant response rating (0 to 100 scale) [2]	Barnyardgrass plant response rating [2]	Barnyardgrass plant response rating (0 to 100 scale) [3]	Pigweed plant response rating (0 to 100 scale) ([4]; 125 g ai/ha)	Ragweed plant response rating (0 to 100 scale) ([5]; 125 g ai/ha)	Foxtail, Green plant response rating (0 to 100 scale) ([6]; 125 g ai/ha)	Kochia plant response rating (0 to 100 scale) (kochia (Kochia scoparia) [7]; 125 g ai/ha)	Ryegrass, Italian plant response rating (0 to 100 scale) ([8]; 125 g ai/ha)	Rice plant response rating (0 to 100 scale) (rice (Oryza sativa))	Pigweed plant response rating ([9]; 125 g ai/ha)	Pigweed plant response rating ([9]; 500 g ai/ha)	Ragweed plant response rating ([10]; 125 g ai/ha)	Ragweed plant response rating ([10]; 500 g ai/ha)	Blackgrass plant response rating ([11]; 125 g ai/ha)	Blackgrass plant response rating ([11]; 500 g ai/ha)	Corn plant response rating (corn (Zea mays); 125 g ai/ha)	Corn plant response rating (corn (Zea mays); 500 g ai/ha)	Barnyardgrass plant response rating ([12]; 125 g ai/ha)	Barnyardgrass plant response rating ([12]; 500 g ai/ha)	further results
CC1=[N+]([O-])C(C(=O)Nc2cccc(F)c2Cl)C(c2ccc(C(F)(F)F)cc2)C1 (racemic) [Compound 31]	0	50	100	0	0	0	90	0	0	0	0	30	0	20	20	80	0	10	30	90	Pigweed plant response rating (0 to 100 scale) ([4]; 500 g ai/ha): 60; Ragweed plant response rating (0 to 100 scale) ([5]; 500 g ai/ha): 90; Foxtail, Green plant response rating (0 to 100 scale) ([6]; 500 g ai/ha): 100; Kochia plant response rating (0 to 100 scale) (kochia (Kochia scoparia) [7]; 500 g ai/ha): 80; Ryegrass, Italian plant response rating (0 to 100 scale) ([8]; 500 g ai/ha): 20; Wheat plant response rating ([13]; 125 g ai/ha): 0; Wheat plant response rating ([13]; 500 g ai/ha): 40; Foxtail, Green plant response rating ([14]; 125 g ai/ha): 40; Foxtail, Green plant response rating ([14]; 500 g ai/ha): 90; Kochia plant response rating (kochia (Kochia scoparia) [15]; 125 g ai/ha): 0; Kochia plant response rating (kochia (Kochia scoparia) [15]; 500 g ai/ha): 10; Ryegrass, Italian plant response rating ([16]; 125 g ai/ha): 20; Ryegrass, Italian plant response rating ([16]; 500 g ai/ha): 20
CC1=[N+]([O-])C(C(=O)Nc2cccc(F)c2F)C(c2cccc(C#N)c2)C1 (racemic) [Compound 23]	60	60	90	50	0	50	80	20	0	0	0	0	0	0	0	0	0	0	70	80	Pigweed plant response rating ([4]; 500 g ai/ha): 0; Ragweed plant response rating ([5]; 500 g ai/ha): 80; Foxtail, Green plant response rating ([6]; 500 g ai/ha): 90; Kochia plant response rating (kochia (Kochia scoparia) [7]; 500 g ai/ha): 50; Ryegrass, Italian plant response rating ([8]; 500 g ai/ha): 0; Wheat plant response rating ([13]; 125 g ai/ha): 20; Wheat plant response rating ([13]; 500 g ai/ha): 50; Foxtail, Green plant response rating ([14]; 125 g ai/ha): 30; Foxtail, Green plant response rating ([14]; 500 g ai/ha): 80; Kochia plant response rating (kochia (Kochia scoparia) [15]; 125 g ai/ha): 0; Kochia plant response rating (kochia (Kochia scoparia) [15]; 500 g ai/ha): 20; Ryegrass, Italian plant response rating ([16]; 125 g ai/ha): 0; Ryegrass, Italian plant response rating ([16]; 500 g ai/ha): 20
CC1=[N+]([O-])C(C(=O)Nc2cccc(F)c2F)C(c2ccc(C#N)cc2)C1 (racemic) [Compound 22]	40	20	80	0	0	70	40	0	0	30	0	20	0	0	0	30	0	0	0	60	Pigweed plant response rating ([4]; 500 g ai/ha): 20; Ragweed plant response rating ([5]; 500 g ai/ha): 30; Foxtail, Green plant response rating ([6]; 500 g ai/ha): 70; Kochia plant response rating (kochia (Kochia scoparia) [7]; 500 g ai/ha): 20; Ryegrass, Italian plant response rating ([8]; 500 g ai/ha): 0; Wheat plant response rating ([13]; 125 g ai/ha): 0; Wheat plant response rating ([13]; 500 g ai/ha): 0; Foxtail, Green plant response rating ([14]; 125 g ai/ha): 0; Foxtail, Green plant response rating ([14]; 500 g ai/ha): 50; Kochia plant response rating (kochia (Kochia scoparia) [15]; 125 g ai/ha): 0; Kochia plant response rating (kochia (Kochia scoparia) [15]; 500 g ai/ha): 30; Ryegrass, Italian plant response rating ([16]; 125 g ai/ha): 0; Ryegrass, Italian plant response rating ([16]; 500 g ai/ha): 0
CC1=[N+]([O-])[C@H](C(=O)Nc2ccc(F)nc2F)[C@@H](c2ccc(C(F)(F)F)cc2)C1 (relative stereo) [Compound 37, rel-(2S,3R)—N-(2,6-Difluoro-3-pyridinyl)-3,4-dihydro-5-methyl-3-[4-(trifluoromethyl)phenyl]-2H-pyrrole-2-carboxamide 1-oxide]	100	90	100	45	80	90	90	70	0	0	0	70	0	60	20	90	20	50	40	70	Pigweed plant response rating (0 to 100 scale) ([4]; 500 g ai/ha): 100; Ragweed plant response rating (0 to 100 scale) ([5]; 500 g ai/ha): 100; Foxtail, Green plant response rating (0 to 100 scale) ([6]; 500 g ai/ha): 100; Kochia plant response rating (0 to 100 scale) (kochia (Kochia scoparia) [7]; 500 g ai/ha): 90; Ryegrass, Italian plant response rating (0 to 100 scale) ([8]; 500 g ai/ha): 0; Wheat plant response rating ([13]; 125 g ai/ha): 10; Wheat plant response rating ([13]; 500 g ai/ha): 60; Foxtail, Green plant response rating ([14]; 125 g ai/ha): 60; Foxtail, Green plant response rating ([14]; 500 g ai/ha): 90; Kochia plant response rating (kochia (Kochia scoparia) [15]; 125 g ai/ha): 10; Kochia plant response rating (kochia (Kochia scoparia) [15]; 500 g ai/ha): 70; Ryegrass, Italian plant response rating ([16]; 125 g ai/ha): 0; Ryegrass, Italian plant response rating ([16]; 500 g ai/ha): 40
CC1=[N+]([O-])C(C(=O)Nc2cccc(F)c2C#N)C(c2ccc(C(F)(F)F)cc2)C1 (racemic) [Compound 34]	50	80	100	35	0	50	40	0	0	0	30	70	0	50	40	80	0	0	30	70	Pigweed plant response rating (0 to 100 scale) ([4]; 500 g ai/ha): 90; Ragweed plant response rating (0 to 100 scale) ([5]; 500 g ai/ha): 100; Foxtail, Green plant response rating (0 to 100 scale) ([6]; 500 g ai/ha): 100; Kochia plant response rating (0 to 100 scale) (kochia (Kochia scoparia) [7]; 500 g ai/ha): 90; Ryegrass, Italian plant response rating (0 to 100 scale) ([8]; 500 g ai/ha): 0; Wheat plant response rating ([13]; 125 g ai/ha): 0; Wheat plant response rating ([13]; 500 g ai/ha): 50; Foxtail, Green plant response rating ([14]; 125 g ai/ha): 0; Foxtail, Green plant response rating ([14]; 500 g ai/ha): 80; Kochia plant response rating (kochia (Kochia scoparia) [15]; 125 g ai/ha): 0; Kochia plant response rating (kochia (Kochia scoparia) [15]; 500 g ai/ha): 30; Ryegrass, Italian plant response rating ([16]; 125 g ai/ha): 0; Ryegrass, Italian plant response rating ([16]; 500 g ai/ha): 30

Source: US11498899B2, “Nitrone herbicides” (FMC Corporation, priority 2016, dated 2022)
